Consider 24 compounds from patent US20210040118A1, “IMMUNOMODULATORS, COMPOSITIONS AND METHODS THEREOF” (BETTA PHARMACEUTICALS CO., LTD, priority 2018, published 2021).

A value given as a limit tells only on which side of the number the result lay.

The target in this assay is T1, PD-1/PD-L1 (Homo sapiens, UniProt Q9NZQ7).
T1 construct: Recombinant human PD-L1 protein (19-238) with a His-tag at the C-terminus; purchased AcroBiosystems PD1-H5229 (PD-L1); PD1-H5257 (PD-1)
T1 sequence (Q9NZQ7 19-238): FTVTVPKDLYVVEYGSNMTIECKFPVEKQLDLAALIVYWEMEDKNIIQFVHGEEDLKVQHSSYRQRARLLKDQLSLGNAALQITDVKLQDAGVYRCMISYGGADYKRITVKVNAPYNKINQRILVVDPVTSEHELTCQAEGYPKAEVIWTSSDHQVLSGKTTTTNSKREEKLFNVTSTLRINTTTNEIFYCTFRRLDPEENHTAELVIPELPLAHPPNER
The assay can be described thus: PD-1/PD-L1 homogenous time-resolved fluorescence (HTRF) binding assay. To be noted: recombinant human PD-L1 (19-238) His-tag / human PD-1 (25-167) Fc tag, class symbols. The procedure, abridged: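 HTRF binding of human PD-1 (25-167, Fc-tagged) at 3 nM and PD-L1 (19-238, His-tagged) at 10 nM, preincubated 40 min with inhibitor in PBS pH 7.4, 0.05% Tween-20, 0.1% BSA, 1% DMSO, 25°C. Eu anti-IgG (1 nM) and anti-His-APC (20 nM) added, 60 min; 665/620 nm ratio; IC50 from curve fit.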
`CNCc1cnc(C(=O)N2CCc3c(-c4cccc5c4CCN5C(=O)c4ncc(CNC)s4)cccc32)s1` [Example 113, [4,4′-biindoline]-1,1′-diylbis((5-((methylamino)methyl)thiazol-2-yl)methanone)]: the half-maximal inhibitory concentration (IC50) is less than 25 nM. Turning to `Cc1nc(C(=O)N2CCc3c(-c4cccc(NC(=O)c5ncc(CN(C)CCO)s5)c4)cccc32)sc1CN(C)C` [Example 114, N-(3-(1-(5-((dimethylamino)methyl)-4-methylthiazole-2-carbonyl)indolin-4-yl)phenyl)-5-(((2-hydroxyethyl)(methyl)amino)methyl)thiazole-2-carboxamide], the IC50 was less than 25 nM. On to `Cc1nc(C(=O)N2CCc3c(-c4cccc5c4CCN5C(=O)c4ncc(CN(C)CCO)s4)cccc32)sc1CN(C)C` [Example 115, (5-((dimethylamino)methyl)-4-methylthiazol-2-yl)(1′-(5-(((2-hydroxyethyl)(methyl)amino)methyl)thiazole-2-carbonyl)-[4,4′-biindolin]-1-yl)methanone], for which the IC50 is less than 25 nM. The same measure for `CN(CCO)Cc1cnc(C(=O)N2CCc3c(-c4cccc5c4CCN5C(=O)c4ncc(CN(C)CCO)s4)cccc32)s1` [Example 116, [4,4′-biindoline]-1,1′-diylbis((5-(((2-hydroxyethyl)(methyl)amino)methyl)thiazol-2-yl)methanone)]: less than 25 nM. The same measure for `CS(=O)(=O)NCCN1CCc2nc(C(=O)N3CCc4c(-c5cccc6c5CCN6C(=O)c5nc6c(s5)CN(CCNS(C)(=O)=O)CC6)cccc43)sc2C1` [Example 117, N,N′-((([4,4′-biindoline]-1,1′-dicarbonyl)bis(6,7-dihydrothiazolo[5,4-c]pyridine-2,5(4H)-diyl))bis(ethane-2,1-diyl))dimethanesulfonamide]: less than 25 nM; for `CN(CCN1CCc2nc(C(=O)N3CCc4c(-c5cccc6c5CCN6C(=O)c5nc6c(s5)CN(CCN(C)S(C)(=O)=O)CC6)cccc43)sc2C1)S(C)(=O)=O` [Example 118, N,N′-((([4,4′-biindoline]-1,1′-dicarbonyl)bis(6,7-dihydrothiazolo[5,4-c]pyridine-2,5(4H)-diyl))bis(ethane-2,1-diyl))bis(N-methylmethanesulfonamide)]: less than 25 nM. With `O=C(O)CN1CCc2sc(C(=O)N3CCc4c(-c5cccc6c5CCN6C(=O)c5nc6c(s5)CCN(CC(=O)O)C6)cccc43)nc2C1` [Example 119, 2,2′-(([4,4′-biindoline]-1,1′-dicarbonyl)bis(6,7-dihydrothiazolo[4,5-c]pyridine-2,5(4H)-diyl))diacetic acid] the figure was less than 25 nM; with `O=C(c1nc2c(s1)CN(CCOCCO)CC2)N1CCc2c(-c3cccc4c3CCN4C(=O)c3nc4c(s3)CN(CCOCCO)CC4)cccc21` [Example 120, [4,4′-biindoline]-1,1′-diylbis((5-(2-(2-hydroxyethoxy)ethyl)-4,5,6,7-tetrahydrothiazolo[5,4-c]pyridin-2-yl)methanone)], less than 25 nM.

As for `O=C(c1nc2c(s1)CN(CCCB(O)O)CC2)N1CCc2c(-c3cccc4c3CCN4C(=O)c3nc4c(s3)CN(CCCB(O)O)CC4)cccc21` [Example 121, ((([4,4′-biindoline]-1,1′-dicarbonyl)bis(6,7-dihydrothiazolo[5,4-c]pyridine-2,5(4H)-diyl))bis(propane-3,1-diyl))diboronic acid], the IC50 is less than 25 nM. With `COB(CCCN1CCc2nc(C(=O)N3CCc4c(-c5cccc6c5CCN6C(=O)c5nc6c(s5)CN(CCCB(OC)OC)CC6)cccc43)sc2C1)OC` [Example 122, tetramethyl((([4,4′-biindoline]-1,1′-dicarbonyl)bis(6,7-dihydrothiazolo[5,4-c]pyridine-2,5(4H)-diyl))bis(propane-3,1-diyl))diboronate] the figure was less than 25 nM; with `COP(=O)(CN1CCc2nc(C(=O)N3CCc4c(-c5cccc6c5CCN6C(=O)c5nc6c(s5)CN(CP(=O)(OC)OC)CC6)cccc43)sc2C1)OC` [Example 123, dimethyl ((2-(1′-(5-((dimethoxyphosphoryl)methyl)-4,5,6,7-tetrahydrothiazolo[5,4-c]pyridine-2-carbonyl)-[4,4′-biindoline]-1-carbonyl)-6,7-dihydrothiazolo[5,4-c]pyridin-5(4H)-yl)methyl)phosphonate], less than 25 nM. With `COP(=O)(CCN1CCc2nc(C(=O)N3CCc4c(-c5cccc6c5CCN6C(=O)c5nc6c(s5)CN(CCP(=O)(OC)OC)CC6)cccc43)sc2C1)OC` [Example 124, dimethyl (2-(2-(1′-(5-(2-(dimethoxyphosphoryl)ethyl)-4,5,6,7-tetrahydrothiazolo[5,4-c]pyridine-2-carbonyl)-[4,4′-biindoline]-1-carbonyl)-6,7-dihydrothiazolo[5,4-c]pyridin-5(4H)-yl)ethyl)phosphonate] the figure was less than 25 nM; with `O=C(c1nc2c(s1)CN(Cc1nn[nH]n1)CC2)N1CCc2c(-c3cccc4c3CCN4C(=O)c3nc4c(s3)CN(Cc3nn[nH]n3)CC4)cccc21` [Example 125, [4,4′-biindoline]-1,1′-diylbis((5-((2H-tetrazol-5-yl)methyl)-4,5,6,7-tetrahydrothiazolo[5,4-c]pyridin-2-yl)methanone)], less than 25 nM. The same measure for `CS(=O)(=O)NCCN1C2CCC1c1sc(C(=O)N3CCc4c(-c5cccc6c5CCN6C(=O)c5nc6c(s5)C5CCC(C6)N5CCNS(C)(=O)=O)cccc43)nc1C2` [Example 126, N,N′-((([4,4′-biindoline]-1,1′-dicarbonyl)bis(5,6,7,8-tetrahydro-4H-5,8-epiminocyclohepta[d]thiazole-2,9-diyl))bis(ethane-2,1-diyl))dimethanesulfonamide]: less than 25 nM. In the case of `CC(C(=O)NS(C)(=O)=O)N1CCc2nc(C(=O)N3CCc4c(-c5cccc6c5CCN6C(=O)c5nc6c(s5)CN(C(C)C(=O)NS(C)(=O)=O)CC6)cccc43)sc2C1` (stereo not drawn) [Example 127, 2,2′-(([4,4′-biindoline]-1,1′-dicarbonyl)bis(6,7-dihydrothiazolo[5,4-c]pyridine-2,5(4H)-diyl))bis(N-(methylsulfonyl)propanamide)], the IC50 was less than 25 nM. Consider `CC(C)(C(=O)NS(C)(=O)=O)N1CCc2nc(C(=O)N3CCc4c(-c5cccc6c5CCN6C(=O)c5nc6c(s5)CN(C(C)(C)C(=O)NS(C)(=O)=O)CC6)cccc43)sc2C1` [Example 128, 2,2′-(([4,4′-biindoline]-1,1′-dicarbonyl)bis(6,7-dihydrothiazolo[5,4-c]pyridine-2,5(4H)-diyl))bis(2-methyl-N-(methylsulfonyl)propanamide)], for which the IC50 was 25 to 100 nM. Take `CS(=O)(=O)NC(=O)C1(N2CCc3nc(C(=O)N4CCc5c(-c6cccc7c6CCN7C(=O)c6nc7c(s6)CN(C6(C(=O)NS(C)(=O)=O)CC6)CC7)cccc54)sc3C2)CC1` [Example 129, 1,1′-(([4,4′-biindoline]-1,1′-dicarbonyl)bis(6,7-dihydrothiazolo[5,4-c]pyridine-2,5(4H)-diyl))bis(N-(methylsulfonyl)cyclopropane-1-carboxamide)]: the half-maximal inhibitory concentration (IC50) lay in the range of 25 to 100 nM. With `COC(=O)NCCN1CCc2nc(C(=O)N3CCc4c(-c5cccc6c5CCN6C(=O)c5nc6c(s5)CN(CCNC(=O)OC)CC6)cccc43)sc2C1` [Example 130, dimethyl ((([4,4′-biindoline]-1,1′-dicarbonyl)bis(6,7-dihydrothiazolo[5,4-c]pyridine-2,5(4H)-diyl))bis(ethane-2,1-diyl))dicarbamate], the half-inhibitory concentration (IC50) was less than 25 nM. The same measure for `COC(=O)NCC1(N2CCc3nc(C(=O)N4CCc5c(-c6cccc7c6CCN7C(=O)c6nc7c(s6)CN(C6(CNC(=O)OC)CC6)CC7)cccc54)sc3C2)CC1` [Example 131, dimethyl (((([4,4′-biindoline]-1,1′-dicarbonyl)bis(6,7-dihydrothiazolo[5,4-c]pyridine-2,5(4H)-diyl))bis(cyclopropane-1,1-diyl))bis(methylene))dicarbamate]: 25 to 100 nM; for `COC(=O)NC1(CN2CCc3nc(C(=O)N4CCc5c(-c6cccc7c6CCN7C(=O)c6nc7c(s6)CN(CC6(NC(=O)OC)CC6)CC7)cccc54)sc3C2)CC1` [Example 132, dimethyl (((([4,4′-biindoline]-1,1′-dicarbonyl)bis(6,7-dihydrothiazolo[5,4-c]pyridine-2,5(4H)-diyl))bis(methylene))bis(cyclopropane-1,1-diyl))dicarbamate]: 25 to 100 nM; for `NC(=S)NCCN1CCc2nc(C(=O)N3CCc4c(-c5cccc6c5CCN6C(=O)c5nc6c(s5)CN(CCNC(N)=S)CC6)cccc43)sc2C1` [Example 133, 1,1′-((([4,4′-biindoline]-1,1′-dicarbonyl)bis(6,7-dihydrothiazolo[5,4-c]pyridine2,5(4H)-diyl))bis(ethane-2,1-diyl))bis(thiourea)]: less than 25 nM.

For `NC(=O)NCCN1CCc2nc(C(=O)N3CCc4c(-c5cccc6c5CCN6C(=O)c5nc6c(s5)CN(CCNC(N)=O)CC6)cccc43)sc2C1` [Example 134, 1,1′-((([4,4′-biindoline]-1,1′-dicarbonyl)bis(6,7-dihydrothiazolo[5,4-c]pyridine-2,5(4H)-diyl))bis(ethane-2,1-diyl))diurea], the half-inhibitory concentration (IC50) was less than 25 nM. With `COC(=O)Cn1cc(CN2CCc3nc(C(=O)N4CCc5c(-c6cccc7c6CCN7C(=O)c6nc7c(s6)CN(Cc6cn(CC(=O)OC)nn6)CC7)cccc54)sc3C2)nn1` [Example 135, dimethyl 2,2′-(((([4,4′-biindoline]-1,1′-dicarbonyl)bis(6,7-dihydrothiazolo[5,4-c]pyridine-2,5(4H)-diyl))bis(methylene))bis(1H-1,2,3-triazole-4,1-diyl))diacetate] the figure was less than 25 nM. The same measure for `O=C(c1nc2n(n1)CCNC2)N1CCc2c(-c3cccc4c3CCN4C(=O)c3nc4n(n3)CCNC4)cccc21` [Example 136, [4,4′-biindoline]-1,1′-diylbis((5,6,7,8-tetrahydro-[1,2,4]triazolo[1,5-a]pyrazin-2-yl)methanone)]: 100 to 200 nM.
